Values of other authors in US20080213374A1, “NANOPARTICULATE SORAFENIB FORMULATIONS” (Elan Pharma International Limited, priority 2006, published 2008).

| SMILES | solubility in water | solubility in PEG 400 (PEG 400) | solubility in aqueous media (aqueous media) | solubility in ethanol (ethanol) |
| --- | --- | --- | --- | --- |
| CNC(=O)c1cc(Oc2ccc(NC(=O)Nc3ccc(Cl)c(C(F)(F)F)c3)cc2)ccn1 [Sorafenib] | practically insoluble | – | – | – |
| CNC(=O)c1cc(Oc2ccc(NC(=O)Nc3ccc(Cl)c(C(F)(F)F)c3)cc2)ccn1.Cc1ccc(S(=O)(=O)O)cc1 [Sorafenib tosylate, 4-(4-{3-[4-Chloro-3-(trifluoromethyl)phenyl]ureido}phenoxy)-N2-methylpyridine-2-carboxamide 4-methylbenzenesulfonate] | practically insoluble | soluble | practically insoluble | slightly soluble |
